Test results as given in patent US8129396B2, “2-[1H-benzimidazol-2(3H)-ylidene]-2-(pyrimidin-2-yl)acetamides and 2-[benzothiazol-2(3H)-ylidene]-2-(pyrimidin-2-yl)acetamides as kinase inhibitors” (Telik, Inc., priority 2008, dated 2012).

Assays:
Aurora A kinase = target: T1, Aurora A kinase (Homo sapiens, UniProt O14965); assay: Aurora A kinase assay (IMAP fluorescence polarization); format: biochemical; settings: 10 μM ATP; rounded to 1 significant figure; read-out: Aur-A IC50
T1 construct: purchased Upstate Biotech
T1 sequence (O14965 1-403): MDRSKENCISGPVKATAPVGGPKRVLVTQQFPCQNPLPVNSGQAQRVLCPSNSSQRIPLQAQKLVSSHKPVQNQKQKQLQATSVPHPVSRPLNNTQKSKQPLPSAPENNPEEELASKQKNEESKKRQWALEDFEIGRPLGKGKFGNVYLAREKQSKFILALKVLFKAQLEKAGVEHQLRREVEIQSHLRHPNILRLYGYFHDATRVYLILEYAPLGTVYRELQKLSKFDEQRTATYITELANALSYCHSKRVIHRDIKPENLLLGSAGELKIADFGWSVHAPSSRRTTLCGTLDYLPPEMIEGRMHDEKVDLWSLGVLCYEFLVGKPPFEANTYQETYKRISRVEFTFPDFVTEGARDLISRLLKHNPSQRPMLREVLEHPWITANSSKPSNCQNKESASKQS
Excerpt: (§1) The cell lines HL60 (human promyelocytic leukemia) and HCT116 (human colon carcinoma) were obtained from the American Type Culture Collection, Manassas, Va., U.S.A., and HUVEC-2 (human umbilical vein endothelial cells) from BD Biosciences, Bedford, Mass., U.S.A. Aurora A kinase was obtained from Upstate Biotech, Billerica, Mass., U.S.A.; Aurora B kinase from BPS Bioscience, San Diego, Calif., U.S.A.; and VEGFR2 kinase from Cell Signaling Technology, Danvers, Mass., U.S.A. The IMAP FP Screening Express kit was obtained from Molecular Devices, Sunnyvale, Calif., U.S.A.; the CellTiter-Glo assay kit from Promega Corporation, Madison, Wis., U.S.A.; and the Cellular DNA Cytometric Analysis Reagent Kit and BrdU labeling and detection kit from Roche Diagnostics Corporation, Indianapolis, Ind., U.S.A. All products were used in accordance with manufacturer's directions. Kinase inhibition assays and the histone phosphorylation (p-H3) assay were conducted in duplicate, and the cytotoxicity and HUVEC proliferation assays were conducted in triplicate, in each case with solvent control.
Aurora A kinase assay: the test compounds were diluted in dimethylsulfoxide (DMSO, eight concentrations with serial 3-fold dilutions) and incubated (final DMSO concentration 2.5%) with Aurora A kinase at room temperature for 5 min in kinase reaction buffer with 1 mM dithiothreitol (IMAP FP Screening Express). The kinase reaction was initiated by adding 100 nM fluorescein labeled PKAtide and 10 μM adenosine triphosphate (ATP), and allowed to continue for 45 min at room temperature, after which it was stopped by adding binding reagent (1:400 dilution in binding buffer A). After 30 min of room temperature incubation with shaking, the fluorescence polarization was measured on a LJL plate reader. Aurora B kinase assay: performed as for the Aurora A kinase assay, but using Aurora B kinase instead of Aurora A kinase.

Aurora B kinase = target: T2, Aurora B kinase (Homo sapiens, UniProt Q96GD4); assay: Aurora B kinase assay (IMAP fluorescence polarization); format: biochemical; settings: 10 μM ATP; rounded to 1 significant figure; read-out: Aur-B IC50
T2 construct: purchased BPS Bioscience
Excerpt: as §1
The kinase reaction was initiated by adding 100 nM fluorescein labeled PKAtide and 10 μM adenosine triphosphate (ATP), and allowed to continue for 45 min at room temperature, after which it was stopped by adding binding reagent (1:400 dilution in binding buffer A). After 30 min of room temperature incubation with shaking, the fluorescence polarization was measured on a LJL plate reader. Aurora B kinase assay: performed as for the Aurora A kinase assay, but using Aurora B kinase instead of Aurora A kinase.

VEGFR2 kinase = target: T3, VEGFR2 kinase (Homo sapiens, UniProt P35968); assay: VEGFR2 kinase assay; format: biochemical; settings: 6 μM ATP, 1 mM MnCl2; rounded to 1 significant figure
T3 construct: purchased Cell Signaling Technology
Excerpt: as §1
This assay was performed as for the Aurora A kinase assay, using VEGFR2 kinase, CSKtide as the substrate with 6 μM ATP and 1 mM MnCl2, a kinase reaction time of 1 hr, and dilution of the binding reagent 1:1200 in binding buffer A/binding buffer B (1:1).

p-H3 in HCT116 cells = assay: Histone phosphorylation (p-H3) assay; format: cell-based; settings: Homo sapiens, HCT-116; HCT116 cells, 4 hr incubation; read-out: p-H3 IC50
Excerpt: as §1
Log phase HCT116 cells were seeded at 2.5×10^4 cells/well in a 96-well plate and allowed to attach overnight. The test compounds were diluted in DMSO (8 concentrations with serial 3-fold dilutions) and added to the cells (0.5% DMSO final concentration), and the cells incubated for 4 hr. The cells were then washed three times with cold phosphate-buffered saline (PBS), and lysis buffer was added. After 30 min shaking at 4° C. and centrifugation, the supernatants were transferred to a nitrocellulose membrane by a “dot-blot” apparatus. After washing the wells, the membrane was processed for Western blot. Detection of p-H3 and β-actin was performed on the same membrane with primary rabbit anti-p-H3 and mouse anti-β-actin antibodies followed by secondary goat anti-rabbit IRDye800 and goat anti-mouse AlexaFluor 680 antibodies. The membranes were scanned on an Odyssey scanner.

[1] = system: HCT116 (human colon carcinoma) cells; assay: HCT116 cytotoxicity assay (CellTiter-Glo); format: cell-based; settings: HCT-116, 72 h, cytotoxicity, three days culture, read-out: HCT116 IC50
Excerpt: as §1
Log-phase cells were trypsinized, collected by centrifugation, and resuspended in a small volume of fresh medium, and the density of viable cells was determined following Trypan Blue staining. Cells were diluted in fresh media (1×10^4 cells/mL for HL60 and 4×10^4 cells/mL for HCT116 cells), the test compounds (concentrations between 0.1 μM and 200 μM, dissolved in DMSO, 50 μL) added immediately after dilution to achieve a final DMSO concentration of 0.5%, then the suspensions added at 150 μL/well to 96-well plates, and incubated overnight to allow attachment in the case of adherent cells. The cells were cultured for three days (about three doubling times). The cells were then collected by centrifugation, and 100 μL of the culture supernatant was replaced by the CellTiter-Glo reagent. After incubation for 15 minutes at room temperature, the plate was read with a luminometer.

T2 sequence (Q96GD4 whole entry): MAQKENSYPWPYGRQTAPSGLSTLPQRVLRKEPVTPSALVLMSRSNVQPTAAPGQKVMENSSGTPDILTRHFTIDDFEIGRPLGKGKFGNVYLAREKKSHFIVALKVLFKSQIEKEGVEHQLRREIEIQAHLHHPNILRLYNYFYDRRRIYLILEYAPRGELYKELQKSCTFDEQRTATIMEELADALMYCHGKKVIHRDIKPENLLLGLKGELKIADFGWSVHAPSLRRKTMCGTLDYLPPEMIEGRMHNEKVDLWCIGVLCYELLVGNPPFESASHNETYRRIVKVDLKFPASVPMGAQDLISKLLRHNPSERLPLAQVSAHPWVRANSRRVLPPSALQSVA
T3 sequence (P35968 20-1356): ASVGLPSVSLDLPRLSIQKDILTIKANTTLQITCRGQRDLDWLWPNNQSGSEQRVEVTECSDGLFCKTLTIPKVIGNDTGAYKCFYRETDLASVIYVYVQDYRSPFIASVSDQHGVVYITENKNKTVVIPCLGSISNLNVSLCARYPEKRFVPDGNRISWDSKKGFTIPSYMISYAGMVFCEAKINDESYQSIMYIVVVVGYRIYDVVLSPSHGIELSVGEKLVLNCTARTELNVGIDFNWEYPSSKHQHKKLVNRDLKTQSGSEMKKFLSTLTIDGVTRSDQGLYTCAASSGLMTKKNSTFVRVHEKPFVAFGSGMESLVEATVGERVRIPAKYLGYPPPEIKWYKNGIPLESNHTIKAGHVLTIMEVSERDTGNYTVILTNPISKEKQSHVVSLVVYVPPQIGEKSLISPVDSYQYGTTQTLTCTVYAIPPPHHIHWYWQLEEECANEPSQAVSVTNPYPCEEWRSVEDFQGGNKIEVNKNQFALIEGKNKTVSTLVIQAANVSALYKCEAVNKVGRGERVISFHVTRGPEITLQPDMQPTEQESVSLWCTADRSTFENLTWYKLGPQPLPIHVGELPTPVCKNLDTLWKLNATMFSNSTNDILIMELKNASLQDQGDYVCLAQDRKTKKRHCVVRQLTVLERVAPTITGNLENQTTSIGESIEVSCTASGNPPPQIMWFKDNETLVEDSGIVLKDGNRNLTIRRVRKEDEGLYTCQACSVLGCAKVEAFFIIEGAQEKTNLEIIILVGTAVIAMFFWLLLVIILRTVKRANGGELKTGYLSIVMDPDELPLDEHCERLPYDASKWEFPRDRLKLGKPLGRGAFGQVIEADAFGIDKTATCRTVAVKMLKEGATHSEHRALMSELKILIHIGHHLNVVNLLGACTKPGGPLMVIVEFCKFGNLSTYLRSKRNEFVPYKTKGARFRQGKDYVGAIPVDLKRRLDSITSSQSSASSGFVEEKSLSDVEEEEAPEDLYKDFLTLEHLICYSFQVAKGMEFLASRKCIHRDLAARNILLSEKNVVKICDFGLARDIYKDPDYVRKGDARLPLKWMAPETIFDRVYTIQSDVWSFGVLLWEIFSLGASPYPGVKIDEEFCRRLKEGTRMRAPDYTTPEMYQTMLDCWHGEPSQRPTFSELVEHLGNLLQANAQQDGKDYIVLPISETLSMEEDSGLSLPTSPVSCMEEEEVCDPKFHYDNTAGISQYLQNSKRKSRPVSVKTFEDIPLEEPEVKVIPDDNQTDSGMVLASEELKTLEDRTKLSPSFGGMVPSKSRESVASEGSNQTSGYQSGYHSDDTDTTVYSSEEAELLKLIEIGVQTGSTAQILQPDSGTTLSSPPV

Row | SMILES | IC50 (Aurora A kinase) [nM] | IC50 (Aurora B kinase) [nM] | IC50 (VEGFR2 kinase) [nM] | IC50 (p-H3 in HCT116 cells) [nM] | IC50 [1] [nM]
1 | NC(=O)/C(=C1\Nc2ccc(C(=O)NC3CCNCC3)cc2N1)c1nccc(C(F)(F)F)n1 [Compound 70A] | 60 | 10 | 4 | 1000 | 600
2 | NC(=O)/C(=C1\Nc2ccc(CCN3CCOCC3)cc2N1)c1nccc(C(F)(F)F)n1 [Compound 102A] | 4 | 7 |  | 50 | 
3 | Cc1ccnc(C(C(N)=O)=C2Nc3ccccc3N2)n1 [Compound 19A] | 400 | 30 |  | > 50000 | 20000
4 | Cn1cncc1CCc1ccc2c(c1)S/C(=C(/C(N)=O)c1nccc(C(F)(F)F)n1)N2 [Compound 98A] | 6 | 8 |  |  | 
5 | NC(=O)C(=C1Nc2ccc([N+](=O)[O-])cc2S1)c1nccc(C(F)(F)F)n1 (single isomer, unassigned) [Compound 26A, 2-[6-nitrobenzothiazol-2(3H)-ylidene]-2-(4-trifluoromethylpyrimidin-2-yl)acetamide] | 200 | 100 | 1000 | > 50000 | 20000
6 | NC(=O)/C(=C1/Nc2cc(F)cc(F)c2N1)c1nccc(C(F)(F)F)n1 [Compound 36A] | 30 | 40 | 200 | > 5000 | 4000
7 | COC(=O)c1cnc(/C(C(N)=O)=C2/Nc3ccccc3S2)nc1C(F)(F)F [Compound 3A] | 20 | 10 | 90 | 20000 | 3000
8 | NC(=O)/C(=C1\Nc2ccc(I)cc2S1)c1nccc(C(F)(F)F)n1 [Compound 25A] | 200 | 100 | 400 | > 50000 | 10000
9 | CCN(C(=O)c1ccc2c(c1)N/C(=C(/C(N)=O)c1nccc(C(F)(F)F)n1)N2)c1cccnc1 [Compound 43A] | 6 | 10 |  |  | 
10 | NCCCNC(=O)c1ccc2c(c1)N/C(=C(/C(N)=O)c1nccc(C(F)(F)F)n1)N2 [Compound 64A] | 50 | 20 | 10 | 900 | 2000
11 | NC(=O)/C(=C1\Nc2ccccc2S1)c1nc(OCCN2CCOCC2)cc(C(F)(F)F)n1 [Compound 14A] | 50 | 30 | 80 | > 50000 | 8000
12 | Cc1cc(C)nc(/C(C(N)=O)=C2/Nc3ccccc3S2)n1 [Compound 22A] | 80 | 10 | 200 | 2000 | 10000
13 | NC(=O)/C(=C1\Nc2ccc(CCO)cc2N1)c1nccc(C(F)(F)F)n1 [Compound 105A] | 5 | 7 |  | 100 | 
14 | CCc1cnc(/C(C(N)=O)=C2/Nc3ccccc3S2)nc1 [Compound 21A] | 200 | 100 | 1000 |  | 20000
15 | COC(=O)c1ccc2c(c1)N/C(=C(/C(N)=O)c1nccc(C(F)(F)F)n1)N2 [Compound 29A] | 30 | 10 | 100 | > 5000 | 200
16 | COC(=O)c1cc(C)nc(/C(C(N)=O)=C2/Nc3ccccc3S2)n1 [Compound 23A] | 70 | 6 | 100 | 8000 | 50000
17 | NC(=O)/C(=C1\Nc2ccc(C(=O)O)cc2S1)c1nccc(C(F)(F)F)n1 [Compound 27A] | 3 | 9 | 10 | 1000 | 7000
18 | Cc1cc(C(=O)O)nc(/C(C(N)=O)=C2/Nc3ccccc3S2)n1 [Compound 24A] | 900 | 1000 | 400 |  | > 50000
19 | NC(=O)/C(=C1\Nc2ccccc2S1)c1nc(NCCN2CCOCC2)cc(C(F)(F)F)n1 [Compound 137A] | 80 | 30 | 40 | 2000 | 2000
20 | NC(=O)/C(=C1\Nc2ccc(N3CCC(N)C3)cc2S1)c1nccc(C(F)(F)F)n1 (centres unmarked) [Compound 123A] | 100 | 40 | 90 | 2000 | 4000
21 | COC(=O)c1cnc(C(C(N)=O)=C2Nc3ccccc3N2)nc1C(F)(F)F [Compound 4A] | 4 | 10 | 30 | > 40000 | 2000
22 | Cc1ccnc(/C(C(N)=O)=C2/Nc3ccccc3S2)n1 [Compound 18A] | 200 | 40 | 500 | 2000 | 20000
23 | NC(=O)/C(=C1\Nc2ccc(C(=O)N(CCO)CCO)cc2N1)c1nccc(C(F)(F)F)n1 [Compound 30A] | 10 | 10 | 8 | 1000 | 
24 | NC(=O)/C(=C1\Nc2cccc(C(=O)NCCCN3CCOCC3)c2S1)c1nccc(C(F)(F)F)n1 [Compound 52A] | 60 | 60 | 100 | > 50000 | 1000
25 | NC(=O)/C(=C1\Nc2ccc(CO)cc2N1)c1nccc(C(F)(F)F)n1 [Compound 35A] | 9 | 5 | 20 | 600 | 200
26 | NCCCNC(=O)c1ccc2c(c1)S/C(=C(/C(N)=O)c1nccc(C(F)(F)F)n1)N2 [Compound 65A] | 30 | 20 | 7 | 400 | 200
